Assay results as given in patent publication US10624897B2, “Chlorobenzene substituted azaaryl compounds” (TAIPEI MEDICAL UNIVERSITY, priority 2015, dated 2020).

Assays:
[1] = test system: Hep3B; test: MTT assay, cell viability; type: cell-based; conditions: 72 hours
Protocol: (§1) Cells were cultured in RPMI-1640 (RT-112, KMS-11, SNU-16, HT-29, HCT-116, NCI—H520, Hep3B, PLC/PRF/5, HL-60, MOLT-4) and DMEM (HepG2, MCF-7, MDA-MB-231) with 10% FBS (v/v) and Penicillin/Streptomycin (100 U/ml). FU-DDLS-1 cell line was maintained in DMEM:F12 medium with 10% FBS. LiSa-2 cell line was maintained in IMDM/RPMI-1640 in a 4:1 ratio supplemented with 10% FBS, 2 mmol/L L-glutamine, and 0.1 mg/mL gentamicin. Human umbilical vein endothelial cells (HUVECs) were grown to confluence on 1% collagen, and maintained in 90% Medium 199 with 25 U/ml heparin, 30 μg/ml endothelial cell growth supplement (ECGS) adjusted to contain 1.5 g/L sodium bicarbonate, 10% FBS and Penicillin/Streptomycin (100 U/ml) Cultures were maintained at 37° C. in a humidified atmosphere of 5% CO2/95% air.
(§2) Cells were seeded in 96-well plates (5,000 cells/well) and incubated overnight for attachment, and were then treated with indicated agents in 10% FBS-supplemented medium for 72 hours. The medium was replaced with MTT (0.5 mg/mL) at 37° C. for 1 hours. After removal of medium, the cells were lysed with 100 μL per well dimethyl sulfoxide (DMSO), and absorbance at 550 nm was measured with microplate reader. The relative cell viability (%) was expressed as a percentage relative to a DMSO control cells.

[2] = test system: PLC/PRF/5; test: MTT assay, cell viability; type: cell-based; conditions: 72 hours
Protocol: as §1, §2

[3] = test system: RT-112; test: MTT assay, cell viability; type: cell-based; conditions: 72 hours
Protocol: as §1, §2

[4] = test system: SNU-16; test: MTT assay, cell viability; type: cell-based; conditions: 72 hours
Protocol: as §1, §2

[5] = test system: FUDDLS; test: MTT assay, cell viability; type: cell-based; conditions: Sarcoma, 72 hours, read-out: IC50 (μM, Mean ± SD)
Protocol: as §1, §2

[6] = test system: HCT-116; test: MTT assay, cell viability; type: cell-based; conditions: Homo sapiens; HCT-116, Colorectal, 72 hours; read-out: IC50 (μM, Mean ± SD)
Protocol: as §1, §2

[7] = test system: HT-29; test: MTT assay, cell viability; type: cell-based; conditions: Homo sapiens; HT-29, Colorectal, 72 hours; read-out: IC50 (μM, Mean ± SD)
Protocol: as §1, §2

[8] = test system: HepG2; test: MTT assay, cell viability; type: cell-based; conditions: Homo sapiens; HepG2, Liver, 72 hours; read-out: IC50 (μM, Mean ± SD)
Protocol: as §1, §2

[9] = test system: KMS-11; test: MTT assay, cell viability; type: cell-based; conditions: Homo sapiens; KMS-11, Myeloma, 72 hours; read-out: IC50 (μM, Mean ± SD)
Protocol: as §1, §2

[10] = test system: LISA-2; test: MTT assay, cell viability; type: cell-based; conditions: LISA-2, Sarcoma, 72 hours; read-out: IC50 (μM, Mean ± SD)
Protocol: as §1, §2

[11] = test system: MCF-7; test: MTT assay, cell viability; type: cell-based; conditions: Homo sapiens, MCF7; MCF-7, Breast, 72 hours; read-out: IC50 (μM, Mean ± SD)
Protocol: as §1, §2

[12] = test system: MDA-MB-231; test: MTT assay, cell viability; type: cell-based; conditions: Homo sapiens; MDA-MB-231, Breast, 72 hours; read-out: IC50 (μM, Mean ± SD)
Protocol: as §1, §2

[13] = test system: RT-112 cells; test: Cell cycle distribution by flow cytometry; type: cell-based; conditions: FIG. 3A; for accumulation of the sub-G1 phase (apoptotic cell death): 48 h to 72 h
[14] = test system: RT-112 tumor xenografts; conditions: 5 mg/kg/wk, i.p., nude mice
Protocol: Eight-week-old female athymic nude mice were group-housed in the TMU Laboratory Animal Center (Taipei, Taiwan) under conditions of constant photoperiod (12 h light/12 h dark at 21-0023° C. and 60-85% humidity) with ad libitum access to sterilized food and water. […] Tumors were measured weekly using calipers. Tumor volume (mm3) was calculated from w2×½ (w=width, 1=length in mm of the tumor).

| SMILES | Viability (% of control cells) Hep3B (5 uM) Mean [1] | Viability (% of control cells) PLC5 (5 uM) Mean [2] | Viability (% of control cells) RT-112 (5 uM) Mean [3] | Viability (% of control cells) RT-112 (10 uM) Mean [3] | Viability (% of control cells) SNU-16 (5 uM) Mean [4] | also measured |
| --- | --- | --- | --- | --- | --- | --- |
| CCN1CCN(c2ccc(Nc3cc(N(C)C(=O)Nc4c(Cl)c(OC)c(Cl)c(OC)c4Cl)nc(-c4ccccc4)n3)cc2)CC1 [MPT0L146, 1-(6-((4-(4-ethylpiperazin-1-yl)phenyl)amino)-2-phenylpyrimidin-4-yl)-1-methyl-3-(2,4,6-trichloro-3,5-dimethoxyphenyl)urea] | 94.3 % of control cells | 88.0 % of control cells | 100.8 % of control cells | 29.7 % of control cells | 83.4 % of control cells |  |
| CCN1CCN(c2ccc(Nc3cc(N(C)C(=O)Nc4c(Cl)c(OC)cc(OC)c4Cl)ncn3)cc2)CC1 [BGJ-398, 3-(2,6-Dichloro-3,5-dimethoxy-phenyl)-1-{6-[4-(4-ethylpiperazin-1-yl)-phenylamino]-pyrimidin-4-yl}-1-methyl-urea] |  |  |  |  |  | IC50 [5]: 1.45 ± 0.17 µM; IC50 [6]: 3.98 ± 0.06 µM; IC50 [7]: 4.77 ± 0.14 µM; IC50 ([1]; Homo sapiens, Liver, read-out: IC50 (μM, Mean ± SD)): 0.72 ± 0.12 µM; IC50 [8]: 5.84 ± 0.25 µM; IC50 [9]: 0.2 ± 0.05 µM; IC50 [10]: 6.13 ± 0.06 µM; IC50 [11]: 5.07 ± 0.63 µM; IC50 [12]: 4.27 ± 0.83 µM; IC50 ([2]; Homo sapiens, PLC/PRF/5, Liver, read-out: IC50 (μM, Mean ± SD)): 2.94 ± 0.11 µM; IC50 ([3]; Homo sapiens, RT-112, Bladder, read-out: IC50 (μM, Mean ± SD)): 1.7 ± 0.05 µM; G0/G1 cell cycle arrest ([13]; 24 h): also observed; accumulation of the sub-G1 phase (apoptotic cell death) [13]: induced pronounced apoptosis |
| CCN1CCN(c2ccc(Nc3nc(Cl)nc(N(C)C(=O)Nc4c(Cl)c(OC)c(Cl)c(OC)c4Cl)n3)cc2)CC1 [MPT0L183, 1-(4-chloro-6-((4-(4-ethylpiperazin-1-yl)phenyl)amino)-1,3,5-triazin-2-yl)-1-methyl-3-(2,4,6-trichloro-3,5-dimethoxyphenyl)urea] | 43.3 % of control cells | 45.0 % of control cells | 15.8 % of control cells | 3.4 % of control cells | 28.2 % of control cells |  |
| COc1c(Cl)c(NC(=O)N(C)c2cc(-c3ccc(C#N)cc3)ncn2)c(Cl)c(OC)c1Cl [MPT0L152, 1-(6-(4-cyanophenyl)pyrimidin-4-yl)-1-methyl-3-(2,4,6-trichloro-3,5-dimethoxyphenyl)urea] |  |  |  | 55.3 % of control cells |  |  |
| COc1c(Cl)c(NC(=O)N(C)c2cc(-c3cccc([N+](=O)[O-])c3)ncn2)c(Cl)c(OC)c1Cl [MPT0L151, 1-methyl-1-(6-(3-nitrophenyl)pyrimidin-4-yl)-3-(2,4,6-trichloro-3,5-dimethoxyphenyl)urea] |  |  |  | 63.8 % of control cells |  |  |
| CC(=O)O[C@H]1C(=O)[C@@]2(C)[C@H]([C@H](OC(=O)c3ccccc3)[C@]3(O)C[C@H](OC(=O)[C@H](O)[C@@H](NC(=O)c4ccccc4)c4ccccc4)C(C)=C1C3(C)C)[C@]1(OC(C)=O)CO[C@@H]1C[C@@H]2O [paclitaxel] |  |  |  |  |  | accumulation of the sub-G1 phase (apoptotic cell death) [13]: induced pronounced apoptosis |
| CCN1CCN(c2ccc(Nc3cc(N(C)C(=O)Nc4c(Cl)c(OC)c(Cl)c(OC)c4Cl)ncn3)cc2)CC1 [MPT0L090, 1-(6-((4-(4-ethylpiperazin-1-yl)phenyl)amino)pyrimidin-4-yl)-1-methyl-3-(2,4,6-trichloro-3,5-dimethoxyphenyl)urea] | 47.1 % of control cells | 72.6 % of control cells | 52.6 % of control cells | 12.7 % of control cells | 27.5 % of control cells |  |
| COc1c(Cl)c(NC(=O)N(C)c2cc(-c3ccc(F)cc3)ncn2)c(Cl)c(OC)c1Cl [MPT0L155, 1-(6-(4-fluorophenyl)pyrimidin-4-yl)-1-methyl-3-(2,4,6-trichloro-3,5-dimethoxyphenyl)urea] | 72.8 % of control cells | 55.3 % of control cells | 92.6 % of control cells | 44.4 % of control cells | 80.5 % of control cells |  |
| CCN1CCN(c2ccc(-c3cc(N(C)C(=O)Nc4c(Cl)c(OC)c(Cl)c(OC)c4Cl)ncn3)cc2)CC1 [MPT0L182, 1-(6-(4-(4-ethylpiperazin-1-yl)phenyl)pyrimidin-4-yl)-1-methyl-3-(2,4,6-trichloro-3,5-dimethoxyphenyl)urea] | 96.3 % of control cells | 78.3 % of control cells | 95.6 % of control cells | 8.6 % of control cells | 63.2 % of control cells |  |
| COc1c(Cl)c(NC(=O)N(C)c2cc(-c3ccccc3)ncn2)c(Cl)c(OC)c1Cl [MPT0L149, 1-methyl-1-(6-phenylpyrimidin-4-yl)-3-(2,4,6-trichloro-3,5-dimethoxyphenyl)urea] |  |  |  | 82.3 % of control cells |  |  |
| COc1c(Cl)c(NC(=O)N(C)c2cc(-c3ccncc3)ncn2)c(Cl)c(OC)c1Cl [MPT0L148, 1-methyl-1-(6-(pyridin-4-yl)pyrimidin-4-yl)-3-(2,4,6-trichloro-3,5-dimethoxyphenyl)urea] |  |  |  | 89.3 % of control cells |  |  |
| COc1c(Cl)c(NC(=O)N(C)c2cc(-c3ccco3)ncn2)c(Cl)c(OC)c1Cl [MPT0L154, 1-(6-(furan-2-yl)pyrimidin-4-yl)-1-methyl-3-(2,4,6-trichloro-3,5-dimethoxyphenyl)urea] |  |  |  | 76.1 % of control cells |  |  |
| N.N.[Cl][Pt][Cl] [Cisplatin, reference compound] |  |  |  |  |  | Tumor growth inhibition (%) [14]: 56.3% |
| COc1c(Cl)c(NC(=O)N(C)c2cc(-c3cccnc3)ncn2)c(Cl)c(OC)c1Cl [MPT0L147, 1-methyl-1-(6-(pyridin-3-yl)pyrimidin-4-yl)-3-(2,4,6-trichloro-3,5-dimethoxyphenyl)urea] |  |  |  | 85.0 % of control cells |  |  |
| COc1c(Cl)c(NC(=O)N(C)c2cc(-c3ccc(Cl)cc3)ncn2)c(Cl)c(OC)c1Cl [MPT0L156, 1-(6-(4-chlorophenyl)pyrimidin-4-yl)-1-methyl-3-(2,4,6-trichloro-3,5-dimethoxyphenyl)urea] | 54.3 % of control cells | 44.4 % of control cells | 98.3 % of control cells | 34.8 % of control cells | 76.7 % of control cells |  |
| COc1ccc(-c2cc(N(C)C(=O)Nc3c(Cl)c(OC)c(Cl)c(OC)c3Cl)ncn2)cc1 [MPT0L153, 1-(6-(4-methoxyphenyl)pyrimidin-4-yl)-1-methyl-3-(2,4,6-trichloro-3,5-dimethoxyphenyl)urea] | 93.6 % of control cells | 91.3 % of control cells | 63.8 % of control cells | 43.0 % of control cells | 76.2 % of control cells |  |
| COc1c(Cl)c(NC(=O)N(C)c2cc(-c3cccc(C#N)c3)ncn2)c(Cl)c(OC)c1Cl [MPT0L150, 1-(6-(3-cyanophenyl)pyrimidin-4-yl)-1-methyl-3-(2,4,6-trichloro-3,5-dimethoxyphenyl)urea] |  |  |  | 75.0 % of control cells |  |  |
